Test results from article PMC6081437, “The potency of the broad spectrum bacteriocin, bactofencin A, against staphylococci is highly dependent on primary structure, N-terminal charge and disulphide formation” (Scientific Reports, 2018).
Bridge positions count the residues as written; N and C are the ends. Peptide text beside a SMILES is read from it.

Key:
Listeria spp. = settings: cell free supernatants of L plantarum ST31 against L. innocua and L. monocytogenes; cited from earlier work
Excerpt: Todorov et al. (1999) previously described plantaricin ST31, a bacteriocin with an amino acid sequence determined to be KRKKHRXQVYNNGMPTGMYR, produced by a sourdough isolate Lactobacillus plantarum ST31, with a reported mass of 2755 + /− 0.3 Da[20]. Substitution of Cys for X results in a peptide with a mass of 2468 Da. However if tryptophan and cysteine, the C terminal amino acids of bactofencin A are included, a mass of 2757 Da is obtained and subsequent oxidation of cysteines gives the published mass, 2755 Da.

[1] = test system: L. monocytogenes ATCC 23074; format: cell-based, Listeria monocytogenes; settings: ATCC 23074
Procedure: (§1) Peptides were resuspended at 1000 µM in 50 mM sodium phosphate buffer pH 6.8 and checked for purity by MALDI-TOF-MS. Peptides were serially diluted 1 in 4 to give a dilution series of 250, 62.50, 15.63, 3.91, 0.98 and 0.24 µM and assayed by the agar well diffusion assay described by Ryan et al.[19]. Briefly, 50 µl aliquots of each peptide concentration were plated on a S. aureus DPC5246 indicator plate and the plate incubated at 37 °C. Peptide activity (Minimum Inhibitory Concentration (MIC)) was taken as the lowest concentration of peptide to give a zone of inhibition. All assays were performed in triplicate. The dilution series values were rounded to the nearest whole number to give 1000, 250, 63, 16, 4, 1 and 0.25 µM and data is colour coded for ease of interpretation.
(§2) Bactofencin R8Q and bactofencin R8K were synthesised as described above and their activity compared to bactofencin A against S. aureus DPC5246, Listeria innocua DPC3572 and L. monocytogenes ATCC 23074.

Listeria innocua DPC3572 = format: cell-based
Procedure: as §1, §2

S. aureus DPC5246 = format: cell-based, Staphylococcus aureus; settings: DPC5246, pH 6.8
How it was run: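 Agar well diffusion assay: peptides in 50 mM sodium phosphate pH 6.8, 1-in-4 dilutions from 1000 µM stock (250 to 0.24 µM) applied to S. aureus DPC5246 indicator plates at 37 °C. MIC is the lowest concentration giving an inhibition zone, in triplicate; concentrations rounded to whole numbers.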

Row | Compound | activity against Listeria spp., in words (Listeria spp.) | Activity (MIC) [1] [µM] | Activity (MIC) (Listeria innocua DPC3572) [µM] | Activity (Minimum Inhibitory Concentration, MIC) (S. aureus DPC5246) [µM]
1 | KRKKHRXQVYNNGMPTGMYR [plantaricin ST31, bacteriocin produced by sourdough isolate Lactobacillus plantarum ST31 (Todorov et al. 1999); likely natural R8Q variant of bactofencin A] | inactive |  |  | 
2 | CSCC[C@@H]1NC(=O)CNC(=O)[C@H]([C@@H](C)O)NC(=O)[C@@H]2CCCN2C(=O)[C@H](CCSC)NC(=O)CNC(=O)[C@H](CC(N)=O)NC(=O)[C@H](CC(N)=O)NC(=O)[C@H](Cc2ccc(O)cc2)NC(=O)[C@H](C(C)C)NC(=O)[C@H](CCCNC(=N)N)NC(=O)[C@@H](NC(=O)[C@H](CCCNC(=N)N)NC(=O)[C@H](Cc2c[nH]cn2)NC(=O)[C@H](CCCCN)NC(=O)[C@H](CCCCN)NC(=O)[C@H](CCCNC(=N)N)NC(=O)[C@@H](N)CCCCN)CSSC[C@@H](C(=O)O)NC(=O)[C@H](Cc2c[nH]c3ccccc23)NC(=O)[C@H](CCCNC(=N)N)NC(=O)[C@H](Cc2ccc(O)cc2)NC1=O [bactofencin A] (H-KRKKHRCRVYNNGMPTGMYRWC-OH; disulfide 7-22) |  | 63 | 63 | 1
